A compilation of properties of binary mixtures (doi:10.1007/s10953-014-0283-z)

Test: xn = mol fraction of the nth substance listed
Settings: 100 kPa

O + CC[NH3+].O=[N+]([O-])[O-]
x1 = 1
Settings	viscosity [mPa·s]
293.15 K	0.99
298.15 K	0.89
303.15 K	0.81
308.15 K	0.74
318.15 K	0.6

CC[NH3+].O=[N+]([O-])[O-] + O
viscosity [mPa·s]
Settings	x2 = 0	x2 = 0.1088	x2 = 0.2597	x2 = 0.3682	x2 = 0.47	x2 = 0.579	x2 = 0.6776	x2 = 0.7889	x2 = 0.8895	x2 = 0.9499
293.15 K	40.61	–	9.91	–	–	–	3.6	2.4	1.64	1.36
298.15 K	34.49	18.13	8.77	6.77	5.61	4.46	3.22	–	–	1.22
303.15 K	29.65	–	–	6.06	5.04	4	2.9	–	–	1.1
308.15 K	25.76	–	6.9	5.41	–	3.61	2.62	1.78	1.22	1
313.15 K	–	12.2	6.2	4.89	4.08	–	2.38	1.62	1.12	0.92
318.15 K	20.12	10.87	5.59	4.43	–	2.97	2.17	–	1.03	0.84
